Assay results taken from ChEMBL document CHEMBL1629620 (Antimicrob Agents Chemother, 2009).

Tests used:
HFF = test: Antiproliferative activity against HFF after 3 days by coulter counter assay; type: cell-based; conditions: Homo sapiens, 72 h
[1] = Cytotoxicity against HFF after 7 days by neutral red uptake assay; type: cell-based; conditions: human, HFF cells
Vaccinia virus [2] = test: Antiviral activity against Vaccinia virus Copenhagen infected in HFF assessed as reduction of plaque formation after 3 days; type: functional, organism-based; conditions: Orthopoxvirus vaccinia, 72 h
Cowpox virus [3] = test: Antiviral activity against Cowpox virus Brighton infected in HFF assessed as reduction of plaque formation after 3 days; type: functional, organism-based; conditions: 72 h
Vaccinia virus [4] = test: Ratio of compound EC50 to cidofovir EC50 for Vaccinia virus Copenhagen; type: functional, Orthopoxvirus vaccinia
Vaccinia virus [5] = test: Ratio of compound EC50 to cidofovir EC50 for Vaccinia virus WR; type: functional, Orthopoxvirus vaccinia
Cowpox virus [6] = test: Ratio of compound EC50 to cidofovir EC50 for Cowpox virus Brighton; type: functional
Vaccinia virus [7] = test: Antiviral activity against Vaccinia virus WR infected in BALB/c mouse assessed as uncured animal at 15 mg/kg, ip qd for 5 days administered 24 hrs after infection relative to control; type: functional, Orthopoxvirus vaccinia; conditions: route intraperitoneal
Vaccinia virus [8] = test: Antiviral activity against Vaccinia virus WR infected in HFF assessed as reduction of plaque formation after 3 days; type: functional, organism-based; conditions: Orthopoxvirus vaccinia, 72 h
Cowpox virus [9] = test: Antiviral activity against Cowpox virus Brighton infected in BALB/c mouse assessed as uncured animal at 15 mg/kg, ip qd for 5 days administered 4 days after infection relative to control; type: functional; conditions: route intraperitoneal
Cowpox virus [10] = test: Antiviral activity against Cowpox virus Brighton infected in BALB/c mouse assessed as uncured animal at 15 mg/kg, ip qd for 5 days administered 5 days after infection relative to control; type: functional; conditions: route intraperitoneal
Cowpox virus [11] = test: Antiviral activity against Cowpox virus Brighton infected in BALB/c mouse assessed as day of death at 15 mg/kg, ip qd for 5 days administered 5 days after infection; type: functional; conditions: route intraperitoneal
Cowpox virus [12] = test: Antiviral activity against Cowpox virus Brighton infected in BALB/c mouse assessed as uncured animal at 15 mg/kg, ip qd for 5 days administered 8 days after infection relative to control; type: functional; conditions: route intraperitoneal
Cowpox virus [13] = test: Antiviral activity against Cowpox virus Brighton infected in BALB/c mouse assessed as day of death at 15 mg/kg, ip qd for 5 days administered 8 days after infection; type: functional; conditions: route intraperitoneal
Cowpox virus [14] = test: Antiviral activity against Cowpox virus Brighton infected in BALB/c mouse assessed as uncured animal at 15 mg/kg, ip qd for 5 days administered 24 hrs after infection relative to control; type: functional; conditions: route intraperitoneal
Cowpox virus [15] = test: Antiviral activity against Cowpox virus Brighton infected in BALB/c mouse assessed as uncured animal at 15 mg/kg, ip qd for 5 days administered 2 days after infection relative to control; type: functional; conditions: route intraperitoneal
Cowpox virus [16] = test: Antiviral activity against Cowpox virus Brighton infected in BALB/c mouse assessed as uncured animal at 15 mg/kg, ip qd for 5 days administered 3 days after infection relative to control; type: functional; conditions: route intraperitoneal
Vaccinia virus [17] = test: Antiviral activity against Vaccinia virus WR infected in HFF assessed as inhibition of DNA synthesis after 24 hrs by PCR analysis; type: functional, organism-based; conditions: Orthopoxvirus vaccinia
Vaccinia virus [18] = test: Antiviral activity against Vaccinia virus WR infected in BALB/c mouse assessed as uncured animal at 15 mg/kg, ip bid for 5 days administered 24 hrs after infection relative to control; type: functional, Orthopoxvirus vaccinia; conditions: route intraperitoneal
Vaccinia virus [19] = test: Antiviral activity against Vaccinia virus WR infected in BALB/c mouse assessed as uncured animal at 50 mg/kg, ip bid for 5 days administered 24 hrs after infection relative to control; type: functional, Orthopoxvirus vaccinia; conditions: route intraperitoneal
Cowpox virus [20] = test: Antiviral activity against Cowpox virus Brighton infected in BALB/c mouse assessed as uncured animal at 1.5 mg/kg, po bid for 5 days administered 3 days after infection relative to control; type: functional
Cowpox virus [21] = test: Antiviral activity against Cowpox virus Brighton infected in BALB/c mouse assessed as day of death at 15 mg/kg, po bid for 5 days administered 3 days after infection; type: functional
Cowpox virus [22] = test: Antiviral activity against Cowpox virus Brighton infected in BALB/c mouse assessed as day of death at 1.5 mg/kg, po bid for 5 days administered 3 days after infection; type: functional
Cowpox virus [23] = test: Antiviral activity against Cowpox virus Brighton infected in BALB/c mouse assessed as uncured animal at 5 mg/kg, po bid for 5 days administered 4 days after infection relative to control; type: functional
Cowpox virus [24] = test: Antiviral activity against Cowpox virus Brighton infected in BALB/c mouse assessed as day of death at 5 mg/kg, po bid for 5 days administered 4 days after infection; type: functional
Cowpox virus [25] = test: Antiviral activity against Cowpox virus Brighton infected in BALB/c mouse assessed as uncured animal at 5 mg/kg, po bid for 5 days administered 5 days after infection relative to control; type: functional
Cowpox virus [26] = test: Antiviral activity against Cowpox virus Brighton infected in BALB/c mouse assessed as day of death at 5 mg/kg, po bid for 5 days administered 5 days after infection; type: functional
Cowpox virus [27] = test: Antiviral activity against Cowpox virus Brighton infected in BALB/c mouse assessed as uncured animal at 5 mg/kg, po bid for 5 days administered 8 days after infection relative to control; type: functional
Cowpox virus [28] = test: Antiviral activity against Cowpox virus Brighton infected in BALB/c mouse assessed as day of death at 5 mg/kg, po bid for 5 days administered 8 days after infection; type: functional
Vaccinia virus [29] = test: Antiviral activity against Vaccinia virus WR infected in BALB/c mouse assessed as uncured animal at 5 mg/kg, ip bid for 5 days administered 24 hrs after infection relative to control; type: functional, Orthopoxvirus vaccinia; conditions: route intraperitoneal
Vaccinia virus [30] = test: Antiviral activity against Vaccinia virus WR infected in BALB/c mouse assessed as day of death at 15 mg/kg, ip bid for 5 days administered 24 hrs after infection; type: functional, Orthopoxvirus vaccinia; conditions: route intraperitoneal
Cowpox virus [31] = test: Antiviral activity against Cowpox virus Brighton infected in BALB/c mouse assessed as uncured animal at 5 mg/kg, ip bid for 5 days administered 24 hrs after infection relative to control; type: functional; conditions: route intraperitoneal
Cowpox virus [32] = test: Antiviral activity against Cowpox virus Brighton infected in BALB/c mouse assessed as uncured animal at 1.5 mg/kg, ip bid for 5 days administered 24 hrs after infection relative to control; type: functional; conditions: route intraperitoneal
Cowpox virus [33] = test: Antiviral activity against Cowpox virus Brighton infected in BALB/c mouse assessed as uncured animal at 15 mg/kg, po bid for 5 days administered 24 hrs after infection relative to control; type: functional
Cowpox virus [34] = test: Antiviral activity against Cowpox virus Brighton infected in BALB/c mouse assessed as uncured animal at 5 mg/kg, po bid for 5 days administered 24 hrs after infection relative to control; type: functional
Cowpox virus [35] = test: Antiviral activity against Cowpox virus Brighton infected in BALB/c mouse assessed as uncured animal at 1.5 mg/kg, po bid for 5 days administered 24 hrs after infection relative to control; type: functional
Cowpox virus [36] = test: Antiviral activity against Cowpox virus Brighton infected in BALB/c mouse assessed as uncured animal at 15 mg/kg, po bid for 5 days administered 2 days after infection relative to control; type: functional
Cowpox virus [37] = test: Antiviral activity against Cowpox virus Brighton infected in BALB/c mouse assessed as uncured animal at 5 mg/kg, po bid for 5 days administered 2 days after infection relative to control; type: functional
Cowpox virus [38] = test: Antiviral activity against Cowpox virus Brighton infected in BALB/c mouse assessed as uncured animal at 1.5 mg/kg, po bid for 5 days administered 2 days after infection relative to control; type: functional
Cowpox virus [39] = test: Antiviral activity against Cowpox virus Brighton infected in BALB/c mouse assessed as day of death at 15 mg/kg, po bid for 5 days administered 2 days after infection; type: functional
Cowpox virus [40] = test: Antiviral activity against Cowpox virus Brighton infected in BALB/c mouse assessed as day of death at 5 mg/kg, po bid for 5 days administered 2 days after infection; type: functional
Cowpox virus [41] = test: Antiviral activity against Cowpox virus Brighton infected in BALB/c mouse assessed as uncured animal at 15 mg/kg, po bid for 5 days administered 3 days after infection relative to control; type: functional
Cowpox virus [42] = test: Antiviral activity against Cowpox virus Brighton infected in BALB/c mouse assessed as uncured animal at 5 mg/kg, po bid for 5 days administered 3 days after infection relative to control; type: functional

Nc1ccn([C@@H]2S[C@H](CO)[C@@H](O)[C@@H]2O)c(=O)n1 [THIARABINE]
IC50 (HFF): 1000 nM | CC50 at 168 h [1]: > 88 µM | EC50 (Vaccinia virus [2]): 300 nM | EC50 (Cowpox virus [3]): 1600 nM | Ratio EC50 (Vaccinia virus [4]): 20 | Ratio EC50 (Vaccinia virus [5]): 20 | Ratio EC50 (Cowpox virus [6]): 20

CC(=O)OC[C@H]1S[C@@H](n2cc(I)c(=O)[nH]c2=O)C[C@@H]1OC(C)=O
IC50 (HFF): 26000 nM | CC50 at 168 h [1]: > 100 µM | EC50 (Vaccinia virus [2]): 900 nM | EC50 (Cowpox virus [3]): 330 nM | Ratio EC50 (Vaccinia virus [4]): 20 | Ratio EC50 (Vaccinia virus [5]): 20 | Ratio EC50 (Cowpox virus [6]): 20

Nc1nc(=O)n([C@@H]2S[C@H](CO)[C@@H](O)[C@@H]2O)cc1F
IC50 (HFF): < 30 nM | CC50 at 168 h [1]: > 100 µM | EC50 (Vaccinia virus [2]): 100 nM | EC50 (Cowpox virus [3]): 400 nM | Ratio EC50 (Vaccinia virus [4]): 20 | Ratio EC50 (Vaccinia virus [5]): 20 | Ratio EC50 (Cowpox virus [6]): 20

Nc1ccn(C[C@@H](CO)OCP(=O)(O)O)c(=O)n1.O.O [CIDOFOVIR]
Activity (Vaccinia virus [7]): 0% | IC50 (HFF): 1900 nM | CC50 at 168 h [1]: > 317 µM | EC50 (Vaccinia virus [2]): 19000 nM | EC50 (Vaccinia virus [8]): 10000 nM | Activity (Cowpox virus [9]): 0% | Activity (Cowpox virus [10]): 80% | Activity (Cowpox virus [11]): 10.5 days | Activity (Cowpox virus [12]): 27% | Activity (Cowpox virus [13]): 12 days | Activity (Cowpox virus [14]): 0% | Activity (Cowpox virus [15]): 0% | Activity (Cowpox virus [16]): 0%

O=c1[nH]c(=O)n([C@H]2C[C@H](O)[C@@H](CO)S2)cc1C(F)(F)F
IC50 (HFF): 140 nM | CC50 at 168 h [1]: > 100 µM | EC50 (Vaccinia virus [2]): 100 nM | EC50 (Cowpox virus [3]): 80 nM | Ratio EC50 (Vaccinia virus [4]): 20 | Ratio EC50 (Vaccinia virus [5]): 20 | Ratio EC50 (Cowpox virus [6]): 20

O=c1[nH]c(=O)n([C@H]2C[C@H](O)[C@@H](CO)O2)cc1I [IDOXURIDINE]
EC50 (Vaccinia virus [17]): 17 µM | EC50 (Vaccinia virus [8]): 2800 nM

O=c1[nH]c(=O)n([C@H]2C[C@H](O)[C@@H](CO)S2)cc1Br
IC50 (HFF): 200 nM | CC50 at 168 h [1]: > 100 µM | EC50 (Vaccinia virus [2]): 90 nM | EC50 (Cowpox virus [3]): 50 nM | Ratio EC50 (Vaccinia virus [4]): 20 | Ratio EC50 (Vaccinia virus [5]): 20 | Ratio EC50 (Cowpox virus [6]): 20

O=C(NN1C(=O)[C@@H]2[C@@H]3C=C[C@@H]([C@H]4C[C@@H]34)[C@@H]2C1=O)c1ccc(C(F)(F)F)cc1 [TECOVIRIMAT]
EC50 (Vaccinia virus [17]): > 100 µM | EC50 (Vaccinia virus [8]): 70 nM

Cc1cn([C@H]2C[C@H](O)[C@@H](CO)S2)c(=O)[nH]c1=O [4'-THIOTHYMIDINE]
IC50 (HFF): < 30 nM | CC50 at 168 h [1]: > 100 µM | EC50 (Vaccinia virus [2]): 30 nM | EC50 (Cowpox virus [3]): 20 nM | Ratio EC50 (Vaccinia virus [4]): 20 | Ratio EC50 (Vaccinia virus [5]): 20 | Ratio EC50 (Cowpox virus [6]): 20

O=c1[nH]c(=O)n([C@H]2C[C@H](O)[C@@H](CO)S2)cc1I
Activity (Vaccinia virus [18]): 7% | Activity (Vaccinia virus [19]): 0% | EC50 (Vaccinia virus [17]): 0.6 µM | IC50 (HFF): 3000 nM | CC50 at 168 h [1]: > 100 µM | EC50 (Vaccinia virus [2]): 500 nM | EC50 (Vaccinia virus [8]): 40 nM | Activity (Cowpox virus [20]): 13% | Activity (Cowpox virus [21]): 14% | Activity (Cowpox virus [22]): 14 days | Activity (Cowpox virus [23]): 27% | Activity (Cowpox virus [24]): 13.3 days | Activity (Cowpox virus [25]): 87% | Activity (Cowpox virus [26]): 9.8 days | Activity (Cowpox virus [27]): 100% | Activity (Cowpox virus [28]): 9.7 days | Activity (Vaccinia virus [29]): 0% | Activity (Vaccinia virus [30]): 11% | Activity (Cowpox virus [14]): 0% | Activity (Cowpox virus [31]): 0% | Activity (Cowpox virus [32]): 0% | Activity (Cowpox virus [33]): 0% | Activity (Cowpox virus [34]): 0% | Activity (Cowpox virus [35]): 0% | Activity (Cowpox virus [36]): 7% | Activity (Cowpox virus [37]): 13% | Activity (Cowpox virus [38]): 0% | Activity (Cowpox virus [39]): 18% | Activity (Cowpox virus [40]): 16 days | Activity (Cowpox virus [41]): 7% | Activity (Cowpox virus [42]): 0%
